“Also recorded” adds a separate entry of the source.
Test system: human skin tissues
Assay: UV irradiation of human skin explants, cleaved caspase-3 immunohistochemical staining
Assay type: cell-based
Experimental: MAAs extracted from the engineered bacteria of the present invention were evaluated. Human skin was obtained from discarded tissue from elective procedures. The skin tissue was cleaned, trimmed, sterilized and plated in an organ culture medium overnight at 33° C. MAA extract or appropriate controls were applied on skin tissues, after which they were exposed to 135 mJ/cm2 UV-A and UV-B light. The application of live bacteria on human skin tissue was subsequently tested. Different treatments viz. overnight culture of wild type EcN, 10% zinc oxide solution, or overnight culture of EcN expressing shinorine were applied on human skin explants. Treatments were allowed to equilibrate with skin tissue for 1 hour, after which tissues were exposed to UV radiation. The tissues were then incubated for different durations and subsequently fixed. Cleaved caspase-3 immunohistochemical staining was performed to check for DNA damage. Slides were imaged using Leica Slide Scanner and representative images were captured. The captured images were quantified using ImageJ with a modified, previously published protocol (Crowe and Yue, 2019).

With COC1=C(NCC(=O)O)C[C@@](O)(CO)C/C1=N\[C@@H](CO)C(=O)O [shinorine] the “preventing and/or reducing UV-induced DNA damage compared to untreated group” value (MAA extract applied on human skin tissue, 135 mJ/cm2 UV-A and UV-B, three days post exposure, cleaved caspase-3 IHC) was “significantly effective” and the “efficacy vs. 10% zinc oxide against UV-induced DNA damage” value (human skin tissue, 72 h post UV irradiation, comparator 10% ZnO, FIG. 7) was “significant efficacy; also recorded: significantly more effective”.

Source: patent US12545936B2, “Expression and secretion of UV absorbent material from transformed bacteria” (University of Cincinnati, priority 2021, dated 2026)
